# ChEMBL document CHEMBL4000203, “Green synthesis and anticancer potential of chalcone linked-1,2,3-triazoles” (Eur J Med Chem, 2017)
# Tests used:
# HepG2 [1] = assay: Cytotoxicity against human HepG2 cells assessed as growth inhibition at 10 uM measured after 48 hrs by MTT assay relative to control; format: functional; settings: HepG2, 48 h, read-out: GI
# MCF7 [2] = assay: Cytotoxicity against human MCF7 cells assessed as growth inhibition at 10 uM measured after 48 hrs by MTT assay relative to control; format: functional; settings: MCF7, 48 h, read-out: GI
# MIA PaCa-2 [3] = assay: Cytotoxicity against human MIAPaCa2 cells measured after 48 hrs by MTT assay; format: functional, cell-based; settings: MIA PaCa-2, 48 h
# [4] = Cytotoxicity against human FR2 cells assessed as growth inhibition at 10 uM measured after 48 hrs by MTT assay relative to control; format: cell-based; settings: FR2 cells, read-out: GI
# MCF7 [5] = assay: Cytotoxicity against human MCF7 cells measured after 48 hrs by MTT assay; format: functional, cell-based; settings: MCF7, 48 h
# [6] = Cytotoxicity against human FR2 cells measured after 48 hrs by MTT assay; format: cell-based; settings: FR2, 48 h
# MIA PaCa-2 [7] = assay: Cytotoxicity against human MIAPaCa2 cells assessed as growth inhibition at 10 uM measured after 48 hrs by MTT assay relative to control; format: functional; settings: MIA PaCa-2, 48 h, read-out: GI
# A549 [8] = assay: Cytotoxicity against human A549 cells measured after 48 hrs by MTT assay; format: functional, cell-based; settings: A549, 48 h
# HepG2 [9] = assay: Cytotoxicity against human HepG2 cells measured after 48 hrs by MTT assay; format: functional, cell-based; settings: HepG2, 48 h
# A549 [10] = assay: Cytotoxicity against human A549 cells assessed as growth inhibition at 10 uM measured after 48 hrs by MTT assay relative to control; format: functional; settings: A549, 48 h, read-out: GI
# MIA PaCa-2 [11] = assay: Cell cycle arrest in human MIAPaCa2 cells assessed as apoptotic cells measured after 24 hrs by propidium iodide staining based flow cytometric analysis; format: functional
# MIA PaCa-2 [12] = assay: Cell cycle arrest in human MIAPaCa2 cells assessed as accumulation at G1 phase at 50 uM measured after 24 hrs by propidium iodide staining based flow cytometric analysis (reference value: 59%); format: functional
# MIA PaCa-2 [13] = assay: Induction of apoptosis in human MIAPaCa2 cells assessed as activation of procaspase-8 measured after 24 hrs by Western blot analysis; format: functional, cell-based
# MIA PaCa-2 [14] = assay: Cell cycle arrest in human MIAPaCa2 cells assessed as accumulation at S phase at 50 uM measured after 24 hrs by propidium iodide staining based flow cytometric analysis (reference value: 36%); format: functional
# MIA PaCa-2 [15] = assay: Cell cycle arrest in human MIAPaCa2 cells assessed as accumulation at G2 phase at 50 uM measured after 24 hrs by propidium iodide staining based flow cytometric analysis (reference value: 5%); format: functional
# MIA PaCa-2 [16] = assay: Induction of apoptosis in human MIAPaCa2 cells assessed as activation of procaspase-9 measured after 24 hrs by Western blot analysis; format: functional, cell-based
# MIA PaCa-2 [17] = assay: Induction of apoptosis in human MIAPaCa2 cells assessed as increase in PARP-1 cleavage measured after 24 hrs by Western blot analysis; format: functional, cell-based
# MIA PaCa-2 [18] = assay: Induction of mitochondrial membrane depolarization in human MIAPaCa2 cells at 10 uM measured after 24 hrs by […] staining flow cytometric analysis (reference value: 2%); format: functional
# MIA PaCa-2 [19] = assay: Induction of mitochondrial membrane depolarization in human MIAPaCa2 cells at 50 uM measured after 24 hrs by […] staining flow cytometric analysis (reference value: 2%); format: functional
# MIA PaCa-2 [20] = assay: Cell cycle arrest in human MIAPaCa2 cells assessed as accumulation at G1 phase at 30 uM measured after 24 hrs by propidium iodide staining based flow cytometric analysis (reference value: 59%); format: functional
# MIA PaCa-2 [21] = assay: Cell cycle arrest in human MIAPaCa2 cells assessed as accumulation at G2 phase at 10 uM measured after 24 hrs by propidium iodide staining based flow cytometric analysis (reference value: 5%); format: functional
# MIA PaCa-2 [22] = assay: Induction of mitochondrial membrane depolarization in human MIAPaCa2 cells measured after 24 hrs by […] staining based flow cytometric analysis; format: functional, cell-based
# [23] = Selectivity index, ratio of IC50 for human FR2 cells to IC50 for human MIAPaCa2 cells; format: functional
# MIA PaCa-2 [24] = assay: Induction of apoptosis in human MIAPaCa2 cells assessed as increase in casapase-3 cleavage measured after 24 hrs by Western blot analysis; format: functional, cell-based
# MIA PaCa-2 [25] = assay: Cell cycle arrest in human MIAPaCa2 cells assessed as apoptotic cells at 30 uM measured after 24 hrs by propidium iodide staining based flow cytometric analysis (reference value: 1%); format: functional
# [26] = Selectivity index, ratio of IC50 for human FR2 cells to IC50 for human MCF7 cells; format: functional
# MIA PaCa-2 [27] = assay: Cell cycle arrest in human MIAPaCa2 cells assessed as apoptotic cells at 10 uM measured after 24 hrs by propidium iodide staining based flow cytometric analysis (reference value: 1%); format: functional
# MIA PaCa-2 [28] = assay: Cell cycle arrest in human MIAPaCa2 cells assessed as apoptotic cells at 50 uM measured after 24 hrs by propidium iodide staining based flow cytometric analysis (reference value: 1%); format: functional
# MIA PaCa-2 [29] = assay: Cell cycle arrest in human MIAPaCa2 cells assessed as accumulation at S phase at 30 uM measured after 24 hrs by propidium iodide staining based flow cytometric analysis (reference value: 36%); format: functional
# MIA PaCa-2 [30] = assay: Cell cycle arrest in human MIAPaCa2 cells assessed as accumulation at S phase at 10 uM measured after 24 hrs by propidium iodide staining based flow cytometric analysis (reference value: 36%); format: functional
# MIA PaCa-2 [31] = assay: Cell cycle arrest in human MIAPaCa2 cells assessed as accumulation at G2 phase at 30 uM measured after 24 hrs by propidium iodide staining based flow cytometric analysis (reference value: 5%); format: functional
# MIA PaCa-2 [32] = assay: Cell cycle arrest in human MIAPaCa2 cells assessed as accumulation at G1 phase at 10 uM measured after 24 hrs by propidium iodide staining based flow cytometric analysis (reference value: 59%); format: functional
# MIA PaCa-2 [33] = assay: Induction of mitochondrial membrane depolarization in human MIAPaCa2 cells at 30 uM measured after 24 hrs by […] staining flow cytometric analysis (reference value: 2%); format: functional
smiles,measurement,setting,value
COc1ccc(C(=O)/C=C/c2ccc(OCc3cn(Cc4cccc(Br)c4)nn3)cc2)cc1,inhibition of growth at 10 µM,HepG2 [1],27%
same,inhibition of growth at 10 µM,MCF7 [2],45%
same,IC50,MIA PaCa-2 [3],10 µM
same,"inhibition at 48 h, 10 µM",[4],3%
same,IC50,MCF7 [5],20 µM
same,IC50,[6],> 100 µM
same,inhibition of growth at 10 µM,MIA PaCa-2 [7],50%
same,IC50,A549 [8],15 µM
same,IC50,HepG2 [9],60 µM
same,inhibition of growth at 10 µM,A549 [10],47%
COc1ccc(C(=O)/C=C/c2ccc(OCc3cn(Cc4cccc(F)c4)nn3)cc2)cc1,inhibition of growth at 10 µM,HepG2 [1],22%
same,inhibition of growth at 10 µM,MCF7 [2],41%
same,IC50,MIA PaCa-2 [3],15 µM
same,"inhibition at 48 h, 10 µM",[4],12%
same,IC50,MCF7 [5],55 µM
same,IC50,[6],> 100 µM
same,inhibition of growth at 10 µM,MIA PaCa-2 [7],48%
same,IC50,A549 [8],9 µM
same,IC50,HepG2 [9],85 µM
same,inhibition of growth at 10 µM,A549 [10],56%
COc1ccc(C(=O)/C=C/c2ccc(OCc3cn(Cc4ccccc4Br)nn3)cc2)cc1,inhibition of growth at 10 µM,HepG2 [1],44%
same,inhibition of growth at 10 µM,MCF7 [2],60%
same,IC50,MIA PaCa-2 [3],10 µM
same,"inhibition at 48 h, 10 µM",[4],7%
same,IC50,MCF7 [5],7 µM
same,IC50,[6],> 100 µM
same,inhibition of growth at 10 µM,MIA PaCa-2 [7],50%
same,IC50,A549 [8],10 µM
same,IC50,HepG2 [9],20 µM
same,inhibition of growth at 10 µM,A549 [10],52%
O=C(/C=C/c1ccc(OCc2cn(Cc3ccccc3F)nn2)cc1)c1ccc([N+](=O)[O-])cc1,inhibition of growth at 10 µM,HepG2 [1],22%
same,inhibition of growth at 10 µM,MCF7 [2],33%
same,"inhibition at 48 h, 10 µM",[4],12%
same,inhibition of growth at 10 µM,MIA PaCa-2 [7],22%
same,inhibition of growth at 10 µM,A549 [10],43%
O=C(/C=C/c1ccc(OCc2cn(Cc3ccc(Br)cc3)nn2)cc1)c1ccc(Br)cc1,inhibition of growth at 10 µM,HepG2 [1],22%
same,inhibition of growth at 10 µM,MCF7 [2],23%
same,"inhibition at 48 h, 10 µM",[4],11%
same,inhibition of growth at 10 µM,MIA PaCa-2 [7],29%
same,inhibition of growth at 10 µM,A549 [10],27%
O=C(/C=C/c1ccc(OCc2cn(Cc3ccc(Br)cc3)nn2)cc1)c1ccc([N+](=O)[O-])cc1,inhibition of growth at 10 µM,HepG2 [1],21%
same,inhibition of growth at 10 µM,MCF7 [2],18%
same,"inhibition at 48 h, 10 µM",[4],10%
same,inhibition of growth at 10 µM,MIA PaCa-2 [7],17%
same,inhibition of growth at 10 µM,A549 [10],18%
COc1ccc(C(=O)/C=C/c2ccc(OCc3cn(Cc4ccccc4)nn3)cc2)cc1,Activity,MIA PaCa-2 [11],Dose-dependent effect
same,inhibition of growth at 10 µM,HepG2 [1],51%
same,Activity,MIA PaCa-2 [12],41%
same,inhibition of growth at 10 µM,MCF7 [2],70%
same,Activity,MIA PaCa-2 [13],Dose-dependent effect
same,IC50,MIA PaCa-2 [3],4 µM
same,Activity,MIA PaCa-2 [14],51%
same,Activity,MIA PaCa-2 [15],8%
same,"inhibition at 48 h, 10 µM",[4],6%
same,Activity,MIA PaCa-2 [16],Dose-dependent effect
same,Activity,MIA PaCa-2 [17],Dose-dependent effect
same,IC50,MCF7 [5],5 µM
same,IC50,[6],> 100 µM
same,Activity,MIA PaCa-2 [18],4%
same,Activity,MIA PaCa-2 [19],11%
same,Activity,MIA PaCa-2 [20],52%
same,Activity,MIA PaCa-2 [21],11%
same,Activity,MIA PaCa-2 [22],Dose-dependent effect
same,Ratio IC50,[23],25
same,Activity,MIA PaCa-2 [24],Dose-dependent effect
same,Activity,MIA PaCa-2 [25],6%
same,Ratio IC50,[26],>20
same,Activity,MIA PaCa-2 [27],2%
same,Activity,MIA PaCa-2 [28],11%
same,Activity,MIA PaCa-2 [29],44%
same,inhibition of growth at 10 µM,MIA PaCa-2 [7],68%
same,IC50,A549 [8],11 µM
same,IC50,HepG2 [9],9 µM
same,Activity,MIA PaCa-2 [30],53%
same,Activity,MIA PaCa-2 [31],14%
same,inhibition of growth at 10 µM,A549 [10],44%
same,Activity,MIA PaCa-2 [32],36%
same,Activity,MIA PaCa-2 [33],8%
COc1ccc(C(=O)/C=C/c2ccc(OCc3cn(Cc4ccc(Br)cc4)nn3)cc2)cc1,inhibition of growth at 10 µM,HepG2 [1],59%
same,inhibition of growth at 10 µM,MCF7 [2],53%
same,IC50,MIA PaCa-2 [3],8 µM
same,"inhibition at 48 h, 10 µM",[4],2%
same,IC50,MCF7 [5],9 µM
same,IC50,[6],> 100 µM
same,inhibition of growth at 10 µM,MIA PaCa-2 [7],56%
same,IC50,A549 [8],10 µM
same,IC50,HepG2 [9],8 µM
same,inhibition of growth at 10 µM,A549 [10],50%
O=C(/C=C/c1ccc(OCc2cn(Cc3ccc(F)cc3)nn2)cc1)c1ccc(Br)cc1,inhibition of growth at 10 µM,HepG2 [1],22%
same,inhibition of growth at 10 µM,MCF7 [2],37%
same,"inhibition at 48 h, 10 µM",[4],7%
same,inhibition of growth at 10 µM,MIA PaCa-2 [7],32%
same,inhibition of growth at 10 µM,A549 [10],43%
Oc1cccc(-c2nc(N3CCOCC3)c3oc4ncccc4c3n2)c1 [PI-103],inhibition of growth at 10 µM,HepG2 [1],65%
same,inhibition of growth at 10 µM,MCF7 [2],97%
same,IC50,MIA PaCa-2 [3],6 µM
same,"inhibition at 48 h, 10 µM",[4],25%
same,IC50,MCF7 [5],3 µM
same,IC50,[6],> 50 µM
same,inhibition of growth at 10 µM,MIA PaCa-2 [7],93%
same,IC50,A549 [8],4 µM
same,IC50,HepG2 [9],8 µM
same,inhibition of growth at 10 µM,A549 [10],89%
